The source made the active and inactive calls.
Key:
[1] = system: Streptococcus; assay: GAS UMAA2166 growth inhibition – luminescence, BacTiterGlo, counter-screen for streptokinase expression inhibitor project, dose response (AID 1915); assay type: functional, organism-based;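 also: potency for reduction of bacterial viability or growth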
[2] = system: Streptococcus sp. 'group A'; assay: Streptococcus pyogenes SK(-)GAS viability under kanamycin – luminescence, BacTiterGlo, confirmation, counter-screen for streptokinase expression inhibitor project, dose response (AID 1900); assay type: functional, organism-based
[3] = molecular target: Leukocyte tyrosine kinase receptor (Homo sapiens, UniProt P29376); assay: Navigating the Kinome. Panel member name: LTK; assay type: functional
Chain of Leukocyte tyrosine kinase receptor (P29376 whole entry): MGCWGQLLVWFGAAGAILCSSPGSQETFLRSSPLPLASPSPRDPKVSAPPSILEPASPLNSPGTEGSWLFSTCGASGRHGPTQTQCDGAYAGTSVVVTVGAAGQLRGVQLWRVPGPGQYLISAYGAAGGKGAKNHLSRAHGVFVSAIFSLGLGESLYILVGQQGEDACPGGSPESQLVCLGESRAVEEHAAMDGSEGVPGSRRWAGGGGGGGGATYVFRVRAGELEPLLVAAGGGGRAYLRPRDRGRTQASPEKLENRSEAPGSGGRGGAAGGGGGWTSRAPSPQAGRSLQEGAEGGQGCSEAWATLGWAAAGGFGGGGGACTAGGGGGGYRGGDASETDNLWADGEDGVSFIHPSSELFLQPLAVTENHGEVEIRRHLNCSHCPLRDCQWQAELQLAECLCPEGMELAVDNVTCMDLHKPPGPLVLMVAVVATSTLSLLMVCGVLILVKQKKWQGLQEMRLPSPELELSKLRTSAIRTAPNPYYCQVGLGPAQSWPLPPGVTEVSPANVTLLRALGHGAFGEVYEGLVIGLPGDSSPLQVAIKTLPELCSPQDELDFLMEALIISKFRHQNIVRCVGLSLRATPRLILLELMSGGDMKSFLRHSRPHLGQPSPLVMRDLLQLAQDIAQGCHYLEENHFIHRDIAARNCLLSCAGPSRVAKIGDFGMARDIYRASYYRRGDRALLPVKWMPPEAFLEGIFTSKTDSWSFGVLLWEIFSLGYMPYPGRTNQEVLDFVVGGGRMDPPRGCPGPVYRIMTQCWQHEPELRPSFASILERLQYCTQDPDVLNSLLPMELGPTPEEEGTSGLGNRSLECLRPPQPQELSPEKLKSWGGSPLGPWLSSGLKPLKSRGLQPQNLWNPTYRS

[4] = molecular target: Macrophage colony-stimulating factor 1 receptor (Homo sapiens, UniProt P07333); assay type: functional;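 also: value comes from the Navigating the Kinome screening panel, CSF1R member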
Chain of Macrophage colony-stimulating factor 1 receptor (P07333 whole entry): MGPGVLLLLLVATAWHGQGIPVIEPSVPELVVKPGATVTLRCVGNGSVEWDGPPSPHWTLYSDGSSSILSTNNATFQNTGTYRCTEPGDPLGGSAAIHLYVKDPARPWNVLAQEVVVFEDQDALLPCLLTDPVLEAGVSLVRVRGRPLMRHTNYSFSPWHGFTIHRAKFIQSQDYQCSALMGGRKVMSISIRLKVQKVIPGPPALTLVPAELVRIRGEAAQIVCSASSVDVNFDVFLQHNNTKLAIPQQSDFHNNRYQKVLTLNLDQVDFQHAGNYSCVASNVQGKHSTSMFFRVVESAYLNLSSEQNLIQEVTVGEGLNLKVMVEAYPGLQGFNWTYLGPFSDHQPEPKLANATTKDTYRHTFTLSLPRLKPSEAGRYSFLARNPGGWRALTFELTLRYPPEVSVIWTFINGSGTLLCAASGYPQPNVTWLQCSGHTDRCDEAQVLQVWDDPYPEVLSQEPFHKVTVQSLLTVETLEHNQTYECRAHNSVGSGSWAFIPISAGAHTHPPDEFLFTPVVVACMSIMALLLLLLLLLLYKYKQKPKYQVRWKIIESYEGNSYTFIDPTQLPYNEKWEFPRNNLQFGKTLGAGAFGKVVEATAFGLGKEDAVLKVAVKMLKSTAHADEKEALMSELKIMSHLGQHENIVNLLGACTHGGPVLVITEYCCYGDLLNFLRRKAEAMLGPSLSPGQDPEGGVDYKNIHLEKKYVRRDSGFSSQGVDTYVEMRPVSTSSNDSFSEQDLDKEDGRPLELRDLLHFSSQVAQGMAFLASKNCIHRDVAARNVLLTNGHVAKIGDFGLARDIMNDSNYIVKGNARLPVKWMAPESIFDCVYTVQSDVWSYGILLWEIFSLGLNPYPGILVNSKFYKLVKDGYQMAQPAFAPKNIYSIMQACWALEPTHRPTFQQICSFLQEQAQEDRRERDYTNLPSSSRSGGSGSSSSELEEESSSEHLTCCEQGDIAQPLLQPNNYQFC

[5] = molecular target: T1, Mitogen-activated protein kinase kinase kinase kinase 2 (Homo sapiens, UniProt Q12851); assay type: functional;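 also: measured as one member of a kinome-wide kinase panel, with MAP4K2 as the panel entry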
T1 sequence (Q12851 whole entry): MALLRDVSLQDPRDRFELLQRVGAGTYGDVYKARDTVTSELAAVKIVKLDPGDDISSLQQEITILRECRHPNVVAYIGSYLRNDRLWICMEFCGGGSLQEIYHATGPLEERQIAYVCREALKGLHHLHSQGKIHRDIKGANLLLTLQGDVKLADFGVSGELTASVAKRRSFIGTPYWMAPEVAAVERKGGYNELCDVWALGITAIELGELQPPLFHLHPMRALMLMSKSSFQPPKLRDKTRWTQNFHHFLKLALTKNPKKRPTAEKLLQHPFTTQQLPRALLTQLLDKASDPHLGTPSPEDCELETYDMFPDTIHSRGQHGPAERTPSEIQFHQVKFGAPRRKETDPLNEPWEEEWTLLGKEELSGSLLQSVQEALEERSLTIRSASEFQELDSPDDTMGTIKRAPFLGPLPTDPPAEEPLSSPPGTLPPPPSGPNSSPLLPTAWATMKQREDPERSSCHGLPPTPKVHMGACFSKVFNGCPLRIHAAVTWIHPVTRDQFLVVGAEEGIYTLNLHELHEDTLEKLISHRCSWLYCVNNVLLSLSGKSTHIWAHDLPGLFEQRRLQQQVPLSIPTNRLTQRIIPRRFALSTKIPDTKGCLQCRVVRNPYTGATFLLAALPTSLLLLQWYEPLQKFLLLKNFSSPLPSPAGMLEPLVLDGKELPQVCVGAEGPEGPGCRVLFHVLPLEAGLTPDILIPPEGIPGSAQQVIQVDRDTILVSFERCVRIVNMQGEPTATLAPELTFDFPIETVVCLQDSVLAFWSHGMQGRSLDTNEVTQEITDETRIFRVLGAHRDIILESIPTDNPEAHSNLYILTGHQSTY

[6] = molecular target: Rho-associated protein kinase 1 (Homo sapiens, UniProt Q13464); assay type: functional;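 also: measured within a broad kinome-wide panel profiling many kinases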
Chain of Rho-associated protein kinase 1 (Q13464 whole entry): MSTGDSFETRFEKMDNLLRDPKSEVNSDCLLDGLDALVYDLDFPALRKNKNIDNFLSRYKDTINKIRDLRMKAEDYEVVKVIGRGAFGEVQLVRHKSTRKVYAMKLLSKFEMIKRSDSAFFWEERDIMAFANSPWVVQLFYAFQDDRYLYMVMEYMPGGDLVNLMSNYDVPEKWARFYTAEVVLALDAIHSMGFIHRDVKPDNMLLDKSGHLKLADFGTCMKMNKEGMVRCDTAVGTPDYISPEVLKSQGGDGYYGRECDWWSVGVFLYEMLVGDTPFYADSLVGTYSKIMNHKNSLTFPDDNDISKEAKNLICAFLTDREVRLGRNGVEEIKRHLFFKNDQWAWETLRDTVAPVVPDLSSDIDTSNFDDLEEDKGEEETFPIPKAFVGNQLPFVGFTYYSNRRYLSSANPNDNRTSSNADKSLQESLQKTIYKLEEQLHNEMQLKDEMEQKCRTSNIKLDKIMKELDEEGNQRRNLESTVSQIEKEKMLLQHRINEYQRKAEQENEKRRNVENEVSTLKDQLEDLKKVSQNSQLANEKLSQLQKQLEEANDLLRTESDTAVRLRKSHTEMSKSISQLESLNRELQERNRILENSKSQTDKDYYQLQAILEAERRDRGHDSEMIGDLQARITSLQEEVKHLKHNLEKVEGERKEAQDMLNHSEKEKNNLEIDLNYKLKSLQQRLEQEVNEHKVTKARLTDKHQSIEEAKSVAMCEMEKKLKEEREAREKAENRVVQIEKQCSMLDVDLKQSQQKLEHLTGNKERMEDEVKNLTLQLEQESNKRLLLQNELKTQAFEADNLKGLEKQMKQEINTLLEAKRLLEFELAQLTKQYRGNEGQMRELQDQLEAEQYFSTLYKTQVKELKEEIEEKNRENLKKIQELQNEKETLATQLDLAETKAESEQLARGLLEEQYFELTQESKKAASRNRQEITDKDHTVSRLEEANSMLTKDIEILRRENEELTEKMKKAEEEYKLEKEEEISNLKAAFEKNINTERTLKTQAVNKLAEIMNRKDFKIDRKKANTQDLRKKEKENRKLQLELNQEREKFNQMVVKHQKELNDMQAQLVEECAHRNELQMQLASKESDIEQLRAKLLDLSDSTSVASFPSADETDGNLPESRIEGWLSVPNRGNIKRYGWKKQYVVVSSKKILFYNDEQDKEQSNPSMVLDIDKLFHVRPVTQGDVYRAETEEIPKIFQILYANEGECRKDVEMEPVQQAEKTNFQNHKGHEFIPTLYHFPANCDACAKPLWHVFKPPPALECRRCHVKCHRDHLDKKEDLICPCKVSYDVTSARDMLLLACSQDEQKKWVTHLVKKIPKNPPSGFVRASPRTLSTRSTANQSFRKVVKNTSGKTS

[7] = molecular target: Calcium/calmodulin-dependent protein kinase type II subunit alpha (Homo sapiens, UniProt Q9UQM7); assay: Navigating the Kinome. Panel member name: CAMK2A; assay type: functional
Chain of Calcium/calmodulin-dependent protein kinase type II subunit alpha (Q9UQM7 whole entry): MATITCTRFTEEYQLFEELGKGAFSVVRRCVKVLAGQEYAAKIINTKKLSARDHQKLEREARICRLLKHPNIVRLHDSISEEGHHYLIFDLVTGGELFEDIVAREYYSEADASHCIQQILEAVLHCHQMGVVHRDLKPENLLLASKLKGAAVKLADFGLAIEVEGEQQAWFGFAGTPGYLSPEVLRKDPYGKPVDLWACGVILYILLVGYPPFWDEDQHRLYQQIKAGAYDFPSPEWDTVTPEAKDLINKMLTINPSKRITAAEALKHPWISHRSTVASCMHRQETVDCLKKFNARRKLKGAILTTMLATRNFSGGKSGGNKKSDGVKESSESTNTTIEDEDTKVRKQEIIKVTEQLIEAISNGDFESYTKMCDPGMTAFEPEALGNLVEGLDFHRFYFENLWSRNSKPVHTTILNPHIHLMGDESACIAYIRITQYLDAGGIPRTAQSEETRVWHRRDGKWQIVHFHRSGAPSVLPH

[8] = molecular target: T2, Inhibitor of nuclear factor kappa-B kinase subunit epsilon (Homo sapiens, UniProt Q14164); assay: Navigating the Kinome. Panel member name: IKBKE; assay type: functional
T2 sequence (Q14164 whole entry): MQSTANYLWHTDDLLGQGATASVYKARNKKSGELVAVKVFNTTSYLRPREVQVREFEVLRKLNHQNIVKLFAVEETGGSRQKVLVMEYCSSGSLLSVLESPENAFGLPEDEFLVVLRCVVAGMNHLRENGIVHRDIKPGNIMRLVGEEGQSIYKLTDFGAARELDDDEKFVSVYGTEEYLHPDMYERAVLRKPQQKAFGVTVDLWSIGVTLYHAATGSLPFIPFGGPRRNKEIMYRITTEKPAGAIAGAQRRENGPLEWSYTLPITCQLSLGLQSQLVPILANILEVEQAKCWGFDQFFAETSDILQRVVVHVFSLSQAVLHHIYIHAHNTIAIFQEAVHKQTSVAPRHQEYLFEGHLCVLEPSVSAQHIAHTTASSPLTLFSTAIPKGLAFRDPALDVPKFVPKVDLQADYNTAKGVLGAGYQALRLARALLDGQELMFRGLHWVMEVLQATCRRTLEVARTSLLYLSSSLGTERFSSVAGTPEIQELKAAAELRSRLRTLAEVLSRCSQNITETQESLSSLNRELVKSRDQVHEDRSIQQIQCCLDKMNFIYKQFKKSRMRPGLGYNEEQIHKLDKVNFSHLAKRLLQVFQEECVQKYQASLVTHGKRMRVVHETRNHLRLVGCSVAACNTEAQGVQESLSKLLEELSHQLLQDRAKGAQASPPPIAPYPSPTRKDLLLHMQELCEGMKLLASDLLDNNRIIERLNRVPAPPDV

[9] = molecular target: Mitogen-activated protein kinase 14 (Homo sapiens, UniProt Q16539); assay type: functional;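 also: part of a kinome-wide panel, MAPK14 entry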
Chain of Mitogen-activated protein kinase 14 (Q16539 whole entry): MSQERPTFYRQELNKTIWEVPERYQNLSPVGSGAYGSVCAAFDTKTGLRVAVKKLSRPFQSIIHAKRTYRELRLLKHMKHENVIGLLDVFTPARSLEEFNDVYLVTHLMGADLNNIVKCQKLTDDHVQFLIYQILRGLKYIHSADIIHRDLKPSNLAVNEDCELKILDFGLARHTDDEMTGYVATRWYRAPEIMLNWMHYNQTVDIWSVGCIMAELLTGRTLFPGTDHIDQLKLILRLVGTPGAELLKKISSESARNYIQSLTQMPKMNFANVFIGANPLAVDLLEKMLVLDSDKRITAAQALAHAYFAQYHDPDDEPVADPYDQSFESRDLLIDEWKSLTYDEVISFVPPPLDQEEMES

## CCOC(=O)c1ccc(NC2=CC(=O)C(=O)c3ccccc32)cc1
[1]
  EC50: 9240 nM (active)
[2]
  EC50: 2300 nM (active)

## CCCCCCCCCCCCCCCC[N+](C)(C)C
[1]
  EC50: 7770 nM (active)
[2]
  EC50: 2060 nM (active)

## NC1CCC(Nc2nc(Cl)cc(-c3c[nH]c4ncccc34)n2)CC1 (stereo not given)
[3]
  Ki: 126 nM (active)
  pKi: 6.9
[4]
  Ki: 126 nM (active)
  pKi: 6.9
[5]
  Ki: 63.1 nM (active)
  pKi: 7.2
[6]
  Ki: 1.26 nM (active)
  pKi: 8.9
[7]
  Ki: 200 nM (active)
  pKi: 6.7
[8]
  Ki: 2510 nM (active)
  pKi: 5.6
[9]
  Ki: 2000 nM (active)
  pKi: 5.7

## O=C(O)C1CN(Cc2ccc(OCc3ccccc3)cc2Cl)C1
[3]
  Ki: > 2510 nM (inactive)
[4]
  Ki: > 2510 nM (inactive)
[5]
  Ki: > 2510 nM (inactive)
[6]
  Ki: > 3980 nM (inactive)
[7]
  Ki: > 3980 nM (inactive)
[8]
  Ki: > 3160 nM (inactive)
[9]
  Ki: > 3980 nM (inactive)

Source: ChEMBL document CHEMBL1201862, “PubChem BioAssay data set” (2004)
